# Measured values reported in EPA's ToxValDB 9.5.
# Assays:
# Oryctolagus sp. = conditions: reproduction developmental; duration: 13 days; oral; F; New Zealand
# Rattus norvegicus = conditions: short-term, duration: 28 days, oral, gavage, Sprague-Dawley
smiles,measurement,setting,value
O=C(O)C(F)(F)C(F)(F)C(F)(F)C(F)(F)C(F)(F)C(F)(F)C(F)(F)F [Perfluorooctanoic acid],NOAEL,Oryctolagus sp.,50 mg/kg-day
same,LOEL,"Rattus norvegicus; F, Clinical chemistry_Alanine aminotransferase",50 mg/kg-day
same,LOEL,"Rattus norvegicus; F, Clinical chemistry_Albumin",25 mg/kg-day
same,LOEL,"Rattus norvegicus; F, Clinical chemistry_Albumin/globulin ratio",12.5 mg/kg-day
same,LOEL,"Rattus norvegicus; F, Clinical chemistry_Alkaline phosphatase",6.25 mg/kg-day
same,NOEL,"Rattus norvegicus; F, Clinical chemistry_Aspartate aminotransferase",100 mg/kg-day
same,LOEL,"Rattus norvegicus; F, Clinical chemistry_Cholesterol",50 mg/kg-day
same,NOEL,"Rattus norvegicus; F, Clinical chemistry_Creatinine kinase",100 mg/kg-day
same,NOEL,"Rattus norvegicus; F, Clinical chemistry_Direct bilirubin",100 mg/kg-day
same,LOEL,"Rattus norvegicus; F, Clinical chemistry_Free thyroxine",100 mg/kg-day
same,LOEL,"Rattus norvegicus; F, Clinical chemistry_Globulin",12.5 mg/kg-day
same,NOEL,"Rattus norvegicus; F, Clinical chemistry_Indirect bilirubin",100 mg/kg-day
same,NOEL,"Rattus norvegicus; F, Clinical chemistry_Sorbitol dehydrogenase",100 mg/kg-day
same,NOEL,"Rattus norvegicus; F, Clinical chemistry_Testosterone",100 mg/kg-day
same,LOEL,"Rattus norvegicus; F, Clinical chemistry_Thyroid stimulating hormone",6.25 mg/kg-day
same,NOEL,"Rattus norvegicus; F, Clinical chemistry_Total bile acids",100 mg/kg-day
same,NOEL,"Rattus norvegicus; F, Clinical chemistry_Total bilirubin",100 mg/kg-day
same,NOEL,"Rattus norvegicus; F, Clinical chemistry_Total protein",100 mg/kg-day
same,LOEL,"Rattus norvegicus; F, Clinical chemistry_Total thyroxine",100 mg/kg-day
same,NOEL,"Rattus norvegicus; F, Clinical chemistry_Total triiodothyronine",100 mg/kg-day
same,LOEL,"Rattus norvegicus; F, Clinical chemistry_Triglycerides",50 mg/kg-day
same,LOEL,"Rattus norvegicus; F, Gene expression_Acox1",12.5 mg/kg-day
same,LOEL,"Rattus norvegicus; F, Gene expression_Cyp2b1",6.25 mg/kg-day
same,LOEL,"Rattus norvegicus; F, Gene expression_Cyp2b2",6.25 mg/kg-day
same,LOEL,"Rattus norvegicus; F, Gene expression_Cyp4a1",25 mg/kg-day
same,LOEL,"Rattus norvegicus; F, Hematology_Erythrocytes",12.5 mg/kg-day
same,LOEL,"Rattus norvegicus; F, Hematology_Hematocrit",12.5 mg/kg-day
same,LOEL,"Rattus norvegicus; F, Hematology_Hemoglobin",12.5 mg/kg-day
same,NOEL,"Rattus norvegicus; F, Hematology_Mean corpuscular hemoglobin concentration",100 mg/kg-day
same,NOEL,"Rattus norvegicus; F, Hematology_Mean corpuscular volume",100 mg/kg-day
same,NOEL,"Rattus norvegicus; F, Hematology_Platelets",100 mg/kg-day
same,NOEL,"Rattus norvegicus; F, Hematology_Reticulocytes",100 mg/kg-day
same,NOEL,"Rattus norvegicus; F, Nonneoplastic effects_Bone marrow - Hypocellularity",100 mg/kg-day
same,NOEL,"Rattus norvegicus; F, Nonneoplastic effects_Forestomach - Epithelium, hyperplasia",100 mg/kg-day
same,NOEL,"Rattus norvegicus; F, Nonneoplastic effects_Forestomach - Inflammation, chronic active",100 mg/kg-day
same,NOEL,"Rattus norvegicus; F, Nonneoplastic effects_Kidney - Nephropathy, chronic progressive",100 mg/kg-day
same,NOEL,"Rattus norvegicus; F, Nonneoplastic effects_Liver - Hepatocyte, Necrosis",100 mg/kg-day
same,LOEL,"Rattus norvegicus; F, Nonneoplastic effects_Liver - Hepatocyte, cytoplasmic alteration",25 mg/kg-day
same,LOEL,"Rattus norvegicus; F, Nonneoplastic effects_Liver - Hepatocyte, hypertrophy",100 mg/kg-day
same,NOEL,"Rattus norvegicus; F, Nonneoplastic effects_Liver - Hepatocyte, vacuolization cytoplasmic",100 mg/kg-day
same,NOEL,"Rattus norvegicus; F, Nonneoplastic effects_Lymph nodes - Mandibular, atrophy",100 mg/kg-day
same,NOEL,"Rattus norvegicus; F, Nonneoplastic effects_Lymph nodes - Mesenteric, atrophy",100 mg/kg-day
same,LOEL,"Rattus norvegicus; F, Nonneoplastic effects_Nose - Olfactory epithelium, degeneration",50 mg/kg-day
same,LOEL,"Rattus norvegicus; F, Nonneoplastic effects_Nose - Olfactory epithelium, hyperplasia",50 mg/kg-day
same,LOEL,"Rattus norvegicus; F, Nonneoplastic effects_Nose - Olfactory epithelium, inflammation, suppurative",100 mg/kg-day
same,LOEL,"Rattus norvegicus; F, Nonneoplastic effects_Nose - Respiratory epithelium, hyperplasia",12.5 mg/kg-day
same,LOEL,"Rattus norvegicus; F, Nonneoplastic effects_Nose - Respiratory epithelium, inflammation, chronic active",12.5 mg/kg-day
same,NOEL,"Rattus norvegicus; F, Nonneoplastic effects_Spleen - Atrophy",100 mg/kg-day
same,NOEL,"Rattus norvegicus; F, Nonneoplastic effects_Spleen - Extramedullary hematopoiesis, increased",100 mg/kg-day
same,NOEL,"Rattus norvegicus; F, Nonneoplastic effects_Thymus - Atrophy",100 mg/kg-day
same,NOEL,"Rattus norvegicus; F, Nonneoplastic effects_Thymus - Lymphocyte, apoptosis",100 mg/kg-day
same,LOEL,"Rattus norvegicus; F, Nonneoplastic effects_Thyroid gland - Follicular cell hypertrophy",100 mg/kg-day
same,LOEL,"Rattus norvegicus; F, Organ weights_Liver - Absolute",25 mg/kg-day
same,LOEL,"Rattus norvegicus; F, Organ weights_Liver - Relative",25 mg/kg-day
same,NOEL,"Rattus norvegicus; F, Organ weights_R. adrenal gland - Absolute",100 mg/kg-day
same,NOEL,"Rattus norvegicus; F, Organ weights_R. adrenal gland - Relative",100 mg/kg-day
same,LOEL,"Rattus norvegicus; F, Organ weights_R. kidney - Absolute",100 mg/kg-day
same,LOEL,"Rattus norvegicus; F, Organ weights_R. kidney - Relative",50 mg/kg-day
same,NOEL,"Rattus norvegicus; F, Organ weights_Spleen - Absolute",100 mg/kg-day
same,NOEL,"Rattus norvegicus; F, Organ weights_Spleen - Relative",100 mg/kg-day
same,NOEL,"Rattus norvegicus; F, Organ weights_Thymus - Absolute",100 mg/kg-day
same,NOEL,"Rattus norvegicus; F, Organ weights_Thymus - Relative",100 mg/kg-day
same,NOEL,"Rattus norvegicus; F, Organ weights_Thyroid gland - Absolute",100 mg/kg-day
same,NOEL,"Rattus norvegicus; F, Organ weights_Thyroid gland - Relative",100 mg/kg-day
same,LOEL,"Rattus norvegicus; F, Reproductive toxicity_Altered estrous cyclicity",100 mg/kg-day
same,NOEL,"Rattus norvegicus; F, Survival rates",100 mg/kg-day
same,NOEL,"Rattus norvegicus; F, body weight",100 mg/kg-day
same,LOEL,"Rattus norvegicus; M, Clinical chemistry_Alanine aminotransferase",0.625 mg/kg-day
same,NOEL,"Rattus norvegicus; M, Clinical chemistry_Albumin",10 mg/kg-day
same,LOEL,"Rattus norvegicus; M, Clinical chemistry_Albumin/globulin ratio",0.625 mg/kg-day
same,LOEL,"Rattus norvegicus; M, Clinical chemistry_Alkaline phosphatase",0.625 mg/kg-day
same,LOEL,"Rattus norvegicus; M, Clinical chemistry_Aspartate aminotransferase",2.5 mg/kg-day
same,LOEL,"Rattus norvegicus; M, Clinical chemistry_Cholesterol",0.625 mg/kg-day
same,LOEL,"Rattus norvegicus; M, Clinical chemistry_Creatinine kinase",2.5 mg/kg-day
same,LOEL,"Rattus norvegicus; M, Clinical chemistry_Direct bilirubin",10 mg/kg-day
same,LOEL,"Rattus norvegicus; M, Clinical chemistry_Free thyroxine",0.625 mg/kg-day
same,LOEL,"Rattus norvegicus; M, Clinical chemistry_Globulin",0.625 mg/kg-day
same,NOEL,"Rattus norvegicus; M, Clinical chemistry_Sorbitol dehydrogenase",10 mg/kg-day
same,NOEL,"Rattus norvegicus; M, Clinical chemistry_Testosterone",10 mg/kg-day
same,LOEL,"Rattus norvegicus; M, Clinical chemistry_Thyroid stimulating hormone",5 mg/kg-day
same,LOEL,"Rattus norvegicus; M, Clinical chemistry_Total bile acids",5 mg/kg-day
same,LOEL,"Rattus norvegicus; M, Clinical chemistry_Total protein",0.625 mg/kg-day
same,LOEL,"Rattus norvegicus; M, Clinical chemistry_Total thyroxine",0.625 mg/kg-day
same,LOEL,"Rattus norvegicus; M, Clinical chemistry_Total triiodothyronine",0.625 mg/kg-day
same,LOEL,"Rattus norvegicus; M, Clinical chemistry_Triglycerides",0.625 mg/kg-day
same,LOEL,"Rattus norvegicus; M, Gene expression_Acox1",0.625 mg/kg-day
same,LOEL,"Rattus norvegicus; M, Gene expression_Acyl-CoA oxidase",0.625 mg/kg-day
same,LOEL,"Rattus norvegicus; M, Gene expression_Cyp2b1",0.625 mg/kg-day
same,LOEL,"Rattus norvegicus; M, Gene expression_Cyp2b2",0.625 mg/kg-day
same,LOEL,"Rattus norvegicus; M, Gene expression_Cyp4a1",0.625 mg/kg-day
same,LOEL,"Rattus norvegicus; M, Hematology_Erythrocytes",1.25 mg/kg-day
same,LOEL,"Rattus norvegicus; M, Hematology_Hematocrit",1.25 mg/kg-day
same,LOEL,"Rattus norvegicus; M, Hematology_Hemoglobin",1.25 mg/kg-day
same,NOEL,"Rattus norvegicus; M, Hematology_Mean corpuscular hemoglobin concentration",10 mg/kg-day
same,LOEL,"Rattus norvegicus; M, Hematology_Mean corpuscular volume",10 mg/kg-day
same,NOEL,"Rattus norvegicus; M, Hematology_Platelets",10 mg/kg-day
same,LOEL,"Rattus norvegicus; M, Hematology_Reticulocytes",0.625 mg/kg-day
same,LOEL,"Rattus norvegicus; M, Nonneoplastic effects_Bone marrow - Hypocellularity",10 mg/kg-day
same,NOEL,"Rattus norvegicus; M, Nonneoplastic effects_Epididymis - Duct, exfoliated germ cell",10 mg/kg-day
same,NOEL,"Rattus norvegicus; M, Nonneoplastic effects_Epididymis - Epithelium, apoptosis",10 mg/kg-day
same,NOEL,"Rattus norvegicus; M, Nonneoplastic effects_Epididymis - Hypospermia",10 mg/kg-day
same,NOEL,"Rattus norvegicus; M, Nonneoplastic effects_Forestomach - Epithelium, hyperplasia",10 mg/kg-day
same,NOEL,"Rattus norvegicus; M, Nonneoplastic effects_Forestomach - Inflammation, chronic active",10 mg/kg-day
same,NOEL,"Rattus norvegicus; M, Nonneoplastic effects_Kidney - Nephropathy, chronic progressive",10 mg/kg-day
same,NOEL,"Rattus norvegicus; M, Nonneoplastic effects_Liver - Hepatocyte, Necrosis",10 mg/kg-day
same,LOEL,"Rattus norvegicus; M, Nonneoplastic effects_Liver - Hepatocyte, cytoplasmic alteration",0.625 mg/kg-day
same,LOEL,"Rattus norvegicus; M, Nonneoplastic effects_Liver - Hepatocyte, hypertrophy",1.25 mg/kg-day
same,NOEL,"Rattus norvegicus; M, Nonneoplastic effects_Liver - Hepatocyte, vacuolization cytoplasmic",10 mg/kg-day
same,NOEL,"Rattus norvegicus; M, Nonneoplastic effects_Lymph nodes - Mandibular, atrophy",10 mg/kg-day
same,NOEL,"Rattus norvegicus; M, Nonneoplastic effects_Lymph nodes - Mesenteric, atrophy",10 mg/kg-day
same,NOEL,"Rattus norvegicus; M, Nonneoplastic effects_Nose - Olfactory epithelium, degeneration",10 mg/kg-day
same,NOEL,"Rattus norvegicus; M, Nonneoplastic effects_Nose - Olfactory epithelium, hyperplasia",10 mg/kg-day
same,NOEL,"Rattus norvegicus; M, Nonneoplastic effects_Nose - Olfactory epithelium, inflammation, suppurative",10 mg/kg-day
same,LOEL,"Rattus norvegicus; M, Nonneoplastic effects_Nose - Respiratory epithelium, hyperplasia",0.625 mg/kg-day
same,LOEL,"Rattus norvegicus; M, Nonneoplastic effects_Nose - Respiratory epithelium, inflammation, chronic active",0.625 mg/kg-day
same,NOEL,"Rattus norvegicus; M, Nonneoplastic effects_Spleen - Atrophy",10 mg/kg-day
same,NOEL,"Rattus norvegicus; M, Nonneoplastic effects_Spleen - Extramedullary hematopoiesis, increased",10 mg/kg-day
same,NOEL,"Rattus norvegicus; M, Nonneoplastic effects_Testes - Germinal epithelium, degeneration",10 mg/kg-day
same,NOEL,"Rattus norvegicus; M, Nonneoplastic effects_Testes - Interstitial cell, atrophy",10 mg/kg-day
same,NOEL,"Rattus norvegicus; M, Nonneoplastic effects_Testes - Seminiferous tubule, spermatid retention",10 mg/kg-day
same,NOEL,"Rattus norvegicus; M, Nonneoplastic effects_Thymus - Atrophy",10 mg/kg-day
same,NOEL,"Rattus norvegicus; M, Nonneoplastic effects_Thymus - Lymphocyte, apoptosis",10 mg/kg-day
same,LOEL,"Rattus norvegicus; M, Nonneoplastic effects_Thyroid gland - Follicular cell hypertrophy",10 mg/kg-day
same,LOEL,"Rattus norvegicus; M, Organ weights_Liver - Absolute",0.625 mg/kg-day
same,LOEL,"Rattus norvegicus; M, Organ weights_Liver - Relative",0.625 mg/kg-day
same,NOEL,"Rattus norvegicus; M, Organ weights_R. adrenal gland - Absolute",10 mg/kg-day
same,NOEL,"Rattus norvegicus; M, Organ weights_R. adrenal gland - Relative",10 mg/kg-day
same,LOEL,"Rattus norvegicus; M, Organ weights_R. kidney - Absolute",1.25 mg/kg-day
same,LOEL,"Rattus norvegicus; M, Organ weights_R. kidney - Relative",0.625 mg/kg-day
same,NOEL,"Rattus norvegicus; M, Organ weights_R. testis - Absolute",10 mg/kg-day
same,LOEL,"Rattus norvegicus; M, Organ weights_Spleen - Absolute",2.5 mg/kg-day
same,NOEL,"Rattus norvegicus; M, Organ weights_Spleen - Relative",10 mg/kg-day
same,LOEL,"Rattus norvegicus; M, Organ weights_Thymus - Absolute",10 mg/kg-day
same,NOEL,"Rattus norvegicus; M, Organ weights_Thymus - Relative",10 mg/kg-day
same,LOEL,"Rattus norvegicus; M, Organ weights_Thyroid gland - Absolute",2.5 mg/kg-day
same,LOEL,"Rattus norvegicus; M, Organ weights_Thyroid gland - Relative",1.25 mg/kg-day
same,LOEL,"Rattus norvegicus; M, Reproductive toxicity_Altered sperm parameters",10 mg/kg-day
same,NOEL,"Rattus norvegicus; M, Survival rates",10 mg/kg-day
same,LOEL,"Rattus norvegicus; M, body weight",5 mg/kg-day
